Data from US9617256B2 (priority 2007, dated 2017).
Values after ≈ are worked out from the molar mass of the structure shown.

Key:
AECO001 (ATCC25922) = assay: MIC broth microdilution, AECO001; type: cell-based, E. coli; conditions: for MIC: Escherichia coli, ATCC25922, read-out: MIC AECO001
In short: (§1)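 Minimum inhibitory concentrations followed CLSI broth microdilution guidelines: cation-adjusted Mueller-Hinton broth, 2-fold serial drug dilutions, final inoculum 3×10^5–7×10^5 CFU/mL, ambient air at 35° C. for 18-24 hours. Quality-control strains and levofloxacin monitored performance.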

[1] = tested on: AECO063 (ATCC25922 bearing an acrAB mutation); assay: microbe, parasite or virus in culture; type: cell-based, E. coli; conditions: for MIC: Escherichia coli, ATCC25922, read-out: MIC AECO063
In short: as §1

APAE001 (ATCC27853) = assay: MIC broth microdilution, APAE001; type: cell-based, P. aeruginosa; conditions: for MIC: Pseudomonas aeruginosa, ATCC27853, read-out: MIC APAE001, APAE001 is ATCC27853
In short: as §1

[2] = tested on: APAE006 (strain of P. aeruginosa in which all efflux pumps are inactivated); assay: microbe, parasite or virus in culture; type: cell-based; conditions: for MIC: Pseudomonas aeruginosa, read-out: MIC APAE006, P. aeruginosa, all efflux pumps inactivated
In short: (§2)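 For the efflux-deficient P. aeruginosa APAE006, one set of MICs includes polymyxin B nonapeptide at 8 micrograms per milliliter.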

[3] = tested on: APAE006 in the presence of 8 micrograms per milliliter of polymyxin B nonapeptide; type: cell-based, P. aeruginosa; conditions: in the presence of 8 micrograms per milliliter of polymyxin B nonapeptide
In short: as §2

[4] = tested on: AABA1060 (clinical isolate of Acinetobacter baumannii); assay: MIC broth microdilution, AABA1060; type: cell-based; conditions: for MIC: Acinetobacter baumannii, read-out: MIC AABA1060
In short: as §1

[5] = tested on: ASAU001 (laboratory strain of S. aureus, ATCC29213); assay: MIC broth microdilution, ASAU001; type: cell-based; conditions: for MIC: Staphylococcus aureus, ATCC29213, read-out: MIC ASAU001
In short: as §1

AECO001 HSA AGP = assay: MIC broth microdilution, AECO001 HSA AGP; type: cell-based, E. coli; conditions: for MIC: Escherichia coli
In short: as §1

Structure (SMILES): O=C(CNC1CC1)NC[C@H](NC(=O)c1ccc(C#C/C=C/c2ccc(CO)cc2)cc1)C(=O)NO [Example 103-1, N—[(S)-2-(2-cyclopropylamino-acetylamino)-1-hydroxycarbamoyl-ethyl]-4-[(E)-4-(4-hydroxymethyl-phenyl)-but-3-en-1-ynyl]-benzamide]
- MIC (AECO001 (ATCC25922)): < 2 µg/mL
- MIC [1]: < 2 µg/mL
- MIC (APAE001 (ATCC27853)): 2 to 16 µg/mL (≈ 4.2 to 33.6 µM)
- MIC [2]: < 2 µg/mL
- MIC APAE006 + PMBN [3]: A (MIC's of 2.0 μg/mL or less = A)
- MIC [4]: > 64 µg/mL
- MIC [5]: > 64 µg/mL
- MIC (AECO001 HSA AGP): 2 to 16 µg/mL (≈ 4.2 to 33.6 µM)

Structure (SMILES): C[C@@H](O)[C@H](NC(=O)c1ccc(C#C/C=C/c2ccccc2)cc1)C(=O)NO [Example 104-1, N-((1S,2R)-2-Hydroxy-1-hydroxycarbamoyl-propyl)-4-((E)-4-phenyl-but-3-en-1-ynyl)-benzamide]
- MIC (AECO001 (ATCC25922)): < 2 µg/mL
- MIC [1]: < 2 µg/mL
- MIC (APAE001 (ATCC27853)): 2 to 16 µg/mL (≈ 5.49 to 43.9 µM)
- MIC [2]: < 2 µg/mL
- MIC APAE006 + PMBN [3]: A (MIC's of 2.0 μg/mL or less = A)
- MIC [4]: 2 to 16 µg/mL (≈ 5.49 to 43.9 µM)
- MIC [5]: 16 to 64 µg/mL (≈ 43.9 to 176 µM)
- MIC (AECO001 HSA AGP): 2 to 16 µg/mL (≈ 5.49 to 43.9 µM)

Structure (SMILES): NC[C@H](NC(=O)c1ccc(C#C/C=C/c2ccccc2)cc1)C(=O)NO [Example 104-2]
- MIC (AECO001 (ATCC25922)): < 2 µg/mL
- MIC [1]: < 2 µg/mL
- MIC (APAE001 (ATCC27853)): 2 to 16 µg/mL (≈ 5.72 to 45.8 µM)
- MIC [2]: < 2 µg/mL
- MIC APAE006 + PMBN [3]: A (MIC's of 2.0 μg/mL or less = A)
- MIC [4]: 16 to 64 µg/mL (≈ 45.8 to 183 µM)
- MIC [5]: 16 to 64 µg/mL (≈ 45.8 to 183 µM)
- MIC (AECO001 HSA AGP): 2 to 16 µg/mL (≈ 5.72 to 45.8 µM)

Structure (SMILES): CC(C)(O)[C@H](NC(=O)c1ccc(C#C/C=C/c2ccccc2)cc1)C(=O)NO [Example 104-3]
- MIC (AECO001 (ATCC25922)): < 2 µg/mL
- MIC [1]: < 2 µg/mL
- MIC (APAE001 (ATCC27853)): < 2 µg/mL
- MIC [2]: < 2 µg/mL
- MIC APAE006 + PMBN [3]: A (MIC's of 2.0 μg/mL or less = A)
- MIC [4]: < 2 µg/mL
- MIC [5]: 16 to 64 µg/mL (≈ 42.3 to 169 µM)
- MIC (AECO001 HSA AGP): 2 to 16 µg/mL (≈ 5.29 to 42.3 µM)

Structure (SMILES): C[C@@H](N)[C@H](NC(=O)c1ccc(C#C/C=C/c2ccccc2)cc1)C(=O)NO [Example 104-4]
- MIC (AECO001 (ATCC25922)): < 2 µg/mL
- MIC [1]: < 2 µg/mL
- MIC (APAE001 (ATCC27853)): < 2 µg/mL
- MIC [2]: < 2 µg/mL
- MIC APAE006 + PMBN [3]: A (MIC's of 2.0 μg/mL or less = A)
- MIC [4]: 2 to 16 µg/mL (≈ 5.5 to 44 µM)
- MIC [5]: 16 to 64 µg/mL (≈ 44 to 176 µM)
- MIC (AECO001 HSA AGP): 2 to 16 µg/mL (≈ 5.5 to 44 µM)

Structure (SMILES): O=C(CNC1CC1)NC[C@H](NC(=O)c1ccc(C#C/C=C/c2ccccc2)cc1)C(=O)NO [Example 105-1, N—[(S)-2-(2-Cyclopropylamino-acetylamino)-1-hydroxycarbamoyl-ethyl]-4-((E)-4-phenyl-but-3-en-1-ynyl)-benzamide]
- MIC (AECO001 (ATCC25922)): < 2 µg/mL
- MIC [1]: < 2 µg/mL
- MIC (APAE001 (ATCC27853)): 2 to 16 µg/mL (≈ 4.48 to 35.8 µM)
- MIC [2]: < 2 µg/mL
- MIC APAE006 + PMBN [3]: A (MIC's of 2.0 μg/mL or less = A)
- MIC [4]: 16 to 64 µg/mL (≈ 35.8 to 143 µM)
- MIC [5]: 16 to 64 µg/mL (≈ 35.8 to 143 µM)
- MIC (AECO001 HSA AGP): 2 to 16 µg/mL (≈ 4.48 to 35.8 µM)

Structure (SMILES): C[C@H](NCC(=O)NC[C@H](NC(=O)c1ccc(C#C/C=C/c2ccccc2)cc1)C(=O)NO)c1ccccc1 [Example 105-2, N—{(S)-1-Hydroxycarbamoyl-2-[2-((S)-1-phenyl-ethylamino)-acetylamino]-ethyl}-4-((E)-4-phenyl-but-3-en-1-ynyl)-benzamide]
- MIC (AECO001 (ATCC25922)): < 2 µg/mL
- MIC [1]: < 2 µg/mL
- MIC (APAE001 (ATCC27853)): 2 to 16 µg/mL (≈ 3.92 to 31.3 µM)
- MIC [2]: < 2 µg/mL
- MIC APAE006 + PMBN [3]: A (MIC's of 2.0 μg/mL or less = A)
- MIC [4]: 16 to 64 µg/mL (≈ 31.3 to 125 µM)
- MIC [5]: 16 to 64 µg/mL (≈ 31.3 to 125 µM)
- MIC (AECO001 HSA AGP): < 2 µg/mL

Structure (SMILES): C[C@@H](NC(=O)CNC1CC1)[C@H](NC(=O)c1ccc(C#C/C=C/c2ccccc2)cc1)C(=O)NO [Example 105-3]
- MIC AECO001 (AECO001 (ATCC25922); AECO001 is ATCC25922): C (MIC's of greater than 16.0 μg/mL to 64.0 μg/mL = C)
- MIC AECO063 ([1]; ATCC25922 bearing an acrAB mutation): B (MIC's of greater than 2.0 μg/mL to 16.0 μg/mL = B)
- MIC APAE001 (APAE001 (ATCC27853); APAE001 is ATCC27853): C (MIC's of greater than 16.0 μg/mL to 64.0 μg/mL = C)
- MIC APAE006 ([2]; P. aeruginosa, all efflux pumps inactivated): B (MIC's of greater than 2.0 μg/mL to 16.0 μg/mL = B)
- MIC APAE006 + PMBN [3]: A (MIC's of 2.0 μg/mL or less = A)
- MIC AABA1060 ([4]; clinical isolate of Acinetobacter baumannii): C (MIC's of greater than 16.0 μg/mL to 64.0 μg/mL = C)
- MIC ASAU001 ([5]; S. aureus ATCC29213): C (MIC's of greater than 16.0 μg/mL to 64.0 μg/mL = C)
- MIC AECO001 HSA AGP (AECO001 HSA AGP): C (MIC's of greater than 16.0 μg/mL to 64.0 μg/mL = C)

Structure (SMILES): C[C@@H](NCC(=O)NC[C@H](NC(=O)c1ccc(C#C/C=C/c2ccccc2)cc1)C(=O)NO)c1ccccc1 [Example 105-4]
- MIC (AECO001 (ATCC25922)): < 2 µg/mL
- MIC [1]: < 2 µg/mL
- MIC (APAE001 (ATCC27853)): 16 to 64 µg/mL (≈ 31.3 to 125 µM)
- MIC [2]: 2 to 16 µg/mL (≈ 3.92 to 31.3 µM)
- MIC APAE006 + PMBN [3]: A (MIC's of 2.0 μg/mL or less = A)
- MIC [4]: 16 to 64 µg/mL (≈ 31.3 to 125 µM)
- MIC [5]: 16 to 64 µg/mL (≈ 31.3 to 125 µM)
- MIC (AECO001 HSA AGP): 2 to 16 µg/mL (≈ 3.92 to 31.3 µM)

Structure (SMILES): C[C@@H](NCC(=O)N[C@H](C)[C@H](NC(=O)c1ccc(C#C/C=C/c2ccccc2)cc1)C(=O)NO)c1ccccc1 [Example 105-5]
- MIC (AECO001 (ATCC25922)): 2 to 16 µg/mL (≈ 3.81 to 30.5 µM)
- MIC [1]: < 2 µg/mL
- MIC (APAE001 (ATCC27853)): 16 to 64 µg/mL (≈ 30.5 to 122 µM)
- MIC [2]: 2 to 16 µg/mL (≈ 3.81 to 30.5 µM)
- MIC APAE006 + PMBN [3]: A (MIC's of 2.0 μg/mL or less = A)
- MIC [4]: 16 to 64 µg/mL (≈ 30.5 to 122 µM)
- MIC [5]: 16 to 64 µg/mL (≈ 30.5 to 122 µM)
- MIC (AECO001 HSA AGP): 2 to 16 µg/mL (≈ 3.81 to 30.5 µM)

Structure (SMILES): C[C@@H](O)[C@H](NC(=O)c1ccc(C=C(F)C#Cc2ccc(CN3CCOCC3)cc2)cc1)C(=O)NO [Example 109-1, 4-(2-fluoro-4-(4-(morpholinomethyl)phenyl)but-1-en-3-ynyl)-N-((2S,3R)-3-hydroxy-1-(hydroxyamino)-1-oxobutan-2-yl)benzamide]
- MIC (AECO001 (ATCC25922)): < 2 µg/mL
- MIC [1]: < 2 µg/mL
- MIC (APAE001 (ATCC27853)): 2 to 16 µg/mL (≈ 4.15 to 33.2 µM)
- MIC [2]: < 2 µg/mL
- MIC APAE006 + PMBN [3]: A (MIC's of 2.0 μg/mL or less = A)
- MIC [4]: 2 to 16 µg/mL (≈ 4.15 to 33.2 µM)
- MIC [5]: > 64 µg/mL
- MIC (AECO001 HSA AGP): 2 to 16 µg/mL (≈ 4.15 to 33.2 µM)
